Measured values published in patent US7977365B2 (priority 2006, dated 2011).
Where two headings read alike, the source gives them in different places.

What was measured:
[1] = system: Lassa GP-pseudotyped-virus; assay: microbe, parasite or virus in culture; assay type: cell-based, Lassa fever virus; conditions: for EC50: Human immunodeficiency virus 1, read-out: Activity against Lassa GP-pseudotyped-virus EC50
[2] = system: Lassa fever virus (Josiah strain); assay: organism not typed; assay type: cell-based; conditions: read-out: Activity vs. LFV EC50
LASV GP = assay: organism not typed; assay type: cell-based; conditions: HEK-293T
[3] = system: envelope of the New World arenavirus Guanarito; assay: microbe, parasite or virus in culture; assay type: cell-based; conditions: read-out: EC50, Guanarito envelope pseudotyped viral infection
[4] = system: envelope of the New World arenavirus Tacaribe; assay: microbe, parasite or virus in culture; assay type: cell-based; conditions: read-out: EC50, Tacaribe envelope pseudotyped viral infection
LCMV GP = assay: organism not typed; assay type: cell-based; conditions: HEK-293T, 72 h, read-out: IC50 ± SEM, LCMV (wt) GP pseudotype
Pichinde GP = assay: organism not typed; assay type: cell-based; conditions: HEK-293T, 72 h, read-out: IC50 ± SEM, Pichinde (wt) GP pseudotype
Junín GP = assay: organism not typed; assay type: cell-based; conditions: HEK-293T, 72 h, read-out: IC50 ± SEM, Junín GP pseudotype
Machupo GP = assay: organism not typed; assay type: cell-based; conditions: HEK-293T, 72 h, read-out: IC50 ± SEM, Machupo GP pseudotype
Tacaribe GP = assay: organism not typed; assay type: cell-based; conditions: HEK-293T, 72 h, read-out: IC50 ± SEM, Tacaribe GP pseudotype
Guanarito GP = assay: organism not typed; assay type: cell-based; conditions: HEK-293T, 72 h, read-out: IC50 ± SEM, Guanarito GP pseudotype
Sabia GP = assay: organism not typed; assay type: cell-based; conditions: HEK-293T, 72 h, read-out: IC50 ± SEM, Sabia GP pseudotype
VSVg = assay: microbe, parasite or virus in culture; assay type: cell-based, vesicular stomatitis virus; conditions: read-out: IC50 ± SEM, VSV envelope pseudotype
unselected TCRV = assay type: cell-based
[5] = at 50 μM
in vitro = conditions: human

| Compound | specificity [1] | EC50 [1] [nM] | further results |
| --- | --- | --- | --- |
| COc1ccc(CNc2ccc3c(c2)ncn3-c2ccc(OC)cc2)cc1 [Compound 600037, (4-methoxy-benzyl)-[1-(4-methoxy-phenyl)-1H-benzimidazol-5-yl]-amine] | 900 | 16 | EC50 [2]: < 100 nM; IC50 (LASV GP; read-out: average IC50 against LASV GP pseudotypes): 16 nM |
| COc1ccccc1-n1cnc2cc(NCc3ccc(N(C)C)cc3)ccc21 [Compound 600137, (4-dimethylamino-benzyl)-[1-(2-methoxy-phenyl)-1H-benzimidazol-5-yl]-amine] |  | > 12000 |  |
| CN(C)c1ccc(CNc2ccc3c(c2)ncn3-c2ccccc2)cc1 [Compound 600144, (4-dimethylamino-benzyl)-[1-phenyl-1H-benzimidazol-5-yl]-amine] | >1 | 11000 |  |
| COc1ccc(-n2cnc3cc(NCc4ccc(Br)cc4)ccc32)cc1 [Compound 600145, (4-bromo-benzyl)-[1-(4-methoxy-phenyl)-1H-benzimidazol-5-yl]-amine] | 300 | 40 |  |
| COc1ccc(-n2cnc3cc(NCc4ccccc4OC)ccc32)cc1 [Compound 600146, (2-methoxy-benzyl)-[1-(4-methoxy-phenyl)-1H-benzimidazol-5-yl]-amine] | >40 | 300 |  |
| CCOc1ccc(CNc2ccc3c(c2)ncn3-c2ccc(OC)cc2)cc1 [Compound 600147, (4-ethoxy-benzyl)-[1-(4-methoxy-phenyl)-1H-benzimidazol-5-yl]-amine] | >4000 | 3 |  |
| COc1ccc(-n2cnc3cc(NCc4cccc5ccccc45)ccc32)cc1 [Compound 600149, [1-(4-methoxy-phenyl)-1H-benzimidazol-5-yl]-napthalen-1-ylmethyl-amine] | >200 | 60 |  |
| COc1ccc(-n2cnc3cc(NCc4ccccc4O)ccc32)cc1 [Compound 600153, 2-[[1-(4-methoxy-phenyl)-1H-benzimidazol-5-ylamino]-methyl]-phenol] | >60 | 180 |  |
| COc1ccc(CNc2ccc3c(c2)ncn3-c2ccc(C)cc2)cc1 [Compound 600169, (4-methoxy-benzyl)-(1-p-tolyl-1H-benzimidazol-5-yl)-amine] | >500 | 20 |  |
| COc1ccc(-n2cnc3cc(NCc4ccc(Cl)cc4)ccc32)cc1 [Compound 600170, (4-chloro-benzyl)-[1-(4-methoxy-phenyl)-1H-benzimidazol-5-yl]-amine] | >200 | 40 |  |
| COc1ccc(-n2cnc3cc(NCc4ccc(OC)c(OC)c4)ccc32)cc1 [Compound 600172, (3,4-dimethoxy-benzyl)-[1-(4-methoxy-phenyl)-1H-benzimidazol-5-yl]-amine] | >10 | 700 |  |
| Brc1ccc(CNc2ccc3c(c2)ncn3-c2ccccc2)cc1 [Compound 600173, (4-bromo-benzyl)-(1-phenyl-1H-benzimidazol-5-yl)-amine] | >30 | 400 |  |
| CCOc1ccc(CN(c2ccc3c(c2)ncn3-c2ccccc2OC)S(=O)(=O)c2ccc(C)cc2)cc1 [Compound 600179, N-(4-ethoxy-benzyl)-N-[1-(2-methoxy-phenyl)-1H-benzimidazol-5-yl]-4-methylbenzenesulfonamide] | >100 | 110 |  |
| COc1ccc(-n2cnc3cc(NCc4ccc(C)cc4)ccc32)cc1 [Compound 600188, [1-(4-methoxy-phenyl)-1H-benzimidazol-5-yl]-(4-methyl-benzyl)-amine] | >4000 | 3 |  |
| COc1ccc(-n2cnc3cc(NCc4cccc(OC)c4OC)ccc32)cc1 [Compound 600189, (2,3-dimethoxy-benzyl)-[1-(4-methoxy-phenyl)-1H-benzimidazol-5-yl]-amine] | 100 | 100 |  |
| COc1ccc(CNc2ccc3c(c2)ncn3-c2ccccc2OC)cc1 [Compound 600190, (4-methoxy-benzyl)-[1-(2-methoxy-phenyl)-1H-benzimidazol-5-yl]-amine] | 3 | 2000 |  |
| COc1ccc(-n2cnc3cc(NCc4cccc(OC)c4)ccc32)cc1 [Compound 600191, (3-methoxy-benzyl)-[1-(4-methoxy-phenyl)-1H-benzimidazol-5-yl]-amine] | >300 | 40 |  |
| COc1ccccc1-n1cnc2cc(NCc3cccc(OC)c3OC)ccc21 [Compound 600192, (2,3-dimethoxy-benzyl)-[1-(2-methoxy-phenyl)-1H-benzimidazol-5-yl]-amine] | none | 5000 |  |
| COc1ccc(-n2cnc3cc(NCc4ccc(C(C)C)cc4)ccc32)cc1 [Compound 600193, (4-isopropyl-benzyl)-[1-(4-methoxy-phenyl)-1H-benzimidazol-5-yl]-amine] | 13,000 | 1.1 | EC50 [2]: < 100 nM; EC50 [3]: < 1 nM; EC50 [4]: 4 nM; IC50 (LASV GP; 72 h, read-out: IC50 ± SEM, Lassa (LASV wt) GP pseudotype): 1.6 ± 0.3 nM; IC50 (LCMV GP): 31000 ± 4000 nM; IC50 (Pichinde GP): 2600 ± 500 nM; IC50 (Junín GP): 0.2 ± 0.03 nM; IC50 (Machupo GP): 2.3 ± 1.3 nM; IC50 (Tacaribe GP): 4 ± 2 nM; IC50 (Guanarito GP): 0.34 ± 0.07 nM; IC50 (Sabia GP): 12 ± 3 nM; IC50 (VSVg; Vesicular stomatitis virus, HEK-293T): ~30000 nM; IC50 (VSVg): 29000 ± 2500 nM; reduction of TCRV titer (unselected TCRV): 1000 fold; solubility observation [5]: visual evidence of insolubility; CC50 (in vitro): 48000 nM |
| COc1ccc(CNc2ccc3c(c2)ncn3-c2ccccc2)cc1 [Compound 600196, (4-methoxy-benzyl)-(1-phenyl-1H-benzimidazol-5-yl)-amine] | >400 | 30 |  |
| COc1ccc(-n2cnc3cc(N(Cc4ccc(C(C)C)cc4)C(C)=O)ccc32)cc1 [Compound 600362] | 40 | 400 |  |
| COc1ccc(-n2cnc3cc(N(Cc4ccc(C(C)C)cc4)S(=O)(=O)c4ccc(C)cc4)ccc32)cc1 [Compound 600363, N-(4-isopropyl-benzyl)-N-[1-(4-methoxy-phenyl)-1H-benzimidazol-5-yl]-4-methylbenzenesulfonamide] | 100 | 200 |  |
